Patent publication US11526981B2, “Ecotoxicity evaluation analyzing device including microalgae image analysis program installed therein, and method thereof” (KOREA INSTITUTE OF OCEAN SCIENCE & TECHNOLOGY, priority 2017, dated 2022)

Tested on: dunaliella tertiolecta
Test: growth inhibition test (72 h) using microalgae, ecotoxicity evaluation
Assay type: cell-based
Conditions: 20° C.
Method: The used microalgae 1 is dunaliella tertiolecta, and when exposed to stress (toxicity), transforms the state from the original form 51 into a cyst form 61 and loses mobility.
Acetone was used as a toxic substance. In a test method using an exponential formula, the temperature was maintained at 20° C., and the Irradiation was continuously performed using a white fluorescent lamp with an illuminance of 6,000 to 7,000 lx.
Three replicated plots were inoculated with an initial concentration of 20,000 cells/mL, and the shaking speed was set to 100 r/min. Non-toxic filtered seawater containing nutrient medium was used as a dilution water, and growth inhibition was analyzed for 72 hours.
The experimental conditions in examples of the ecotoxicity evaluation analysis device 100 installed with the microalgae image analysis program therein according to the present invention and the analysis method using the same are shown in Table 2.
Referring to FIG. 5, in an example of the microalgae analysis method using the ecotoxicity evaluation analysis device 100 installed with the microalgae image analysis program therein according to the present invention, the performance of the technology of the present invention was verified using representative SR chamber and hemocytometer of the microalgae analysis method as controls. Here, the concentration of the microalgae 1 contained in the sample was analyzed every 24 hours. Cells were dyed in the two controls, whereas measurements were performed without dyeing the cells in the present technology. In the controls, a microscope (200×) was used, and a microalgae 1 counting was performed manually by an experienced expert.
Referring to FIG. 6, a growth inhibition test using microalgae 1 is performed to obtain a 50% effective concentration (EC50) of a toxic substance. The 50% effective concentration is treated as an important data base for various toxicity analysis. […]

Q: What does the source list for `CC(C)=O` [acetone]?
A: 50% effective concentration (EC50) (counting by SR chamber (manual, microscope, dyed cells)): 25.6 mL/L; 50% effective concentration (EC50) (counting by developed analyzer (present invention technology, CMOS shadow image, no dyeing)): 24.2 mL/L; 50% effective concentration (EC50) (counting by hemocytometer (manual, microscope, dyed cells)): 24.9 mL/L
